Assay results reported in patent publication US6710090B2, “Inhibitory or blocking agents of molecular generating and/or inducing functions” (priority 1994, dated 2004).

What was measured:
[1] = test system: mouse hepatoma cells; assay: Anti-cancer effect, cultured mouse hepatoma cells; type: cell-based; conditions: compared with keratinocytes treated with Yoshixol
[2] = test system: E79 double-chained DNA phage; assay: Effect on bacteriophage, numbers of plaques; type: cell-based, bacteriophage (indication bacteria pseudomonas aeruginosa)
Method: Yoshixol (4 μl) were added in 1 ml of phage solution (E79 double-chained DNA phage) which was adjusted on about 10^7 per 1 ml, and were mixed well. Then, 10 μl of the mixture sampled after 5, 10, 20, 30 minutes was diluted by quickly adding in 10 ml of medium, so that 100 μl of the phage-diluted solution put into the test tube as the upper plate with the warmed gelatin agar, which was mixed with 100 μl of the indication bacterial solution (pseudomonas aeruginosa) cultured for one night. Then, the adjusted solution of the phages in the test tube was dropped on the agar plate and, homogeneous surface of the upper agar plate was produced by smoothly rotating the plate on the table. After resting it on the table about 10 minute when multilayer gelatin agar sufficiently became solid, they were stocked into the incubator at 37° C. After one night incubation, numbers of plaques were counted. As a result, the numbers of plaques in the 5 min-treated phage solution, in 10 min-treated phage solution and in the […] phage solution with Yoshixol decreased to 33%, 15% and 6% of the plaques formation in the non-treated phage solution, respectively.

[3] = test system: anti-A blood serum, anti-B blood serum; assay: Function of serum antibodies for ABO blood types; type: biochemical, human
Method: It is also known that antibody has a structure of Y shape which consists of 2 pairs of light chain and heavy chain in generally, and that the fundamental structure is maintained by S—S bond. Serum antibody reaction of ABO blood types is important historically to understand various kinds of antigen-antibody reactions. In this invention, effect of Yoshixol (4 μl) on the standard judgment of ABO blood types was investigated by using human blood of A type, B type and O type (400 μl, respectively).

[4] = test system: human defibrinized serum, bovine albumin, human fibrinogen, myoglobin, anti-A blood type serum and anti-B blood type serum; assay: Primary structure of proteins, electrophoretic analysis of non-SDS wide page; type: biochemical; conditions: 1 ml protein solutions, Yoshixol 4 μl, heated denaturation
Method: Changes in molecular weight composition of the following macromolecular proteins (1 mole solution) before and after treatment with Yoshixol (4 μl) were investigated after heated denaturation by electrophoretic analysis of non-SDS wide page. The used macromolecules proteins solutions of 1 ml are human defibrinized serum, bovine albumin, human fibrinogen, myoglobin, anti-A blood type serum and anti-B blood type serum (Green Cross Co.). Even after treatment with Yoshixol, distribution of molecular weights on electrophoretic analysis was identical to that of the macromolecules proteins which is not treated (referred FIG. 7).

[5] = test system: thrombus; assay: Thrombolytic effect on thrombus, phase contrasted microscopy; type: cell-based, human or canine
Method: In order to investigate a thrombolytic effect of Yoshixol on thrombus, 1 ml of human blood or canine blood were sampled by a syringe and transferred into the Petori-schale (grainer lab. GmHB) so that thrombus formation and rouleaux formation were observed under a phase contrasted microscopy (IMT-2, Olympus Co.). Then, 1 μl of Yoshixol was added in the blood sample when all visual fields could not be discriminated as an normal individual erythrocyte by thrombus formation. Then, a thrombolytic process of the thrombus was investigated and the process was recorded to a video tape via a collar video camera (CCD-IRIS, Sony Co.). The video pictures were analyzed as a liquid phenomena by an original software of dynamic state analysis. […] And, while original form of erythrocyte was recovered, each erythrocyte was marvelously dispersed from thrombus. […] And, Yoshixol has a potential to improve circulatory hindrance which is disturbed physiological role on original blood such as fluidability by being solidability. Yoshixol can apply as thrombolytic agents as well as inhibitory agents for thrombus formation.

[6] = test system: rejected reaction on heterogeneous skin implantation; assay: Heterogeneous skin implantation, donor skin pretreated with Yoshixol solution; type: in vivo, rabbit and dog
Source text: Changes in transplanted skin for 3 months were observed by macroscopically and microscopically, when a piece of skin with entire layer (diameter 3 centimeter meter) at a region of the back of rabbit was transplanted to the region of the back of adult mongrel dog as the entire layer transplantation, and when a piece of skin with entire layer (diameter 3 centimeter meter) at a region of the back of adult mongrel dog was transplanted to the region of the back of rabbit as the entire layer transplantation. Firstly, each piece of skin from rabbit or dog was treated with 5 ml of physiological saline with 10 μl of the test solution for 2 minutes so that each skin piece was transplanted to each recipient by the surgical suture. Two kinds of the test solution were prepared for the above treatment; as control solution, basal solution consists of 2 ml of polyoxyethylene (20) sorbitan monoolate 1 (Wakou Jyunyaku Co.) which is identical to Tween 80 (ICI Ltd.) and 88 ml of physiological saline, and as treated solution, 10 ml of Yoshixol was added in the basal solution. And, 10 μl of Yoshixol was treated directly on the transplanted wound for 3 days after implantation. […] Then, implantated wound of the recipient was cured with a self regenerated skin of each recipient after 3 months. On the other hand, when a piece of transplanted skin is dipped in the Yoshixol solution, the treated skin became to be soft and increases in it's thickness. And, a suture procedure with surgical needle was easily done. […] So that an inflammatory tissue reaction was not also found after 1 month. […] Simultaneously with the above, Yoshixol can inhibit complications of infections on the donor tissues or organs, and can improve an implantation effect. Moreover, by using an entire layer (diameter 3 centimeter meter) of rabbit skin, changes in a piece of the transplanted skin which was sutured to the back of the dog as the recipient were investigated over 3 months after the implantation. […] An outer layer of the transplanted skin was faded 3 month after the implantation likely as to strip a thin membrane.

[7] = biological target: thrombin (Homo sapiens, UniProt P00734); assay: Function and configuration of thrombin, electrophoresis; type: biochemical; design: thrombin (Behlinger Manheim-Yamanouchi Co.) was investigated by electrophoresis; purchased Behlinger Manheim-Yamanouchi Co; conditions: after treatment with Yoshixol 4 μl
Method: Each physiological effect of trypsin (Wakou Jyunyaku Ltd.) and thrombin (Behlinger Manheim-Yamanouchi Co.) was investigated by electrophoresis. When trypsin was added to bovine albumin (Sigma Co. Saint Louis, Mo., USA) or myoglobin (Sigma Co. Saint Louis, Mo., USA), each primary structure of proteins which consist of albumin was altered by proteolytic action of trypsin. In addition, when thrombin was added to human fibrinogen (Behlinger Manheim-Yamanouchi Co.), a primary structure of proteins which consists of fibrinogen was not found.

C=C1CC(C)(C)C=CC1=O [Yoshixol, 4,4-dimethyl-6-methylene-2-cyclohexen-1-one]
structure between cells and cellular aspect [1]: observations similar to the above were found | numbers of plaques, of the plaques formation in the non-treated phage solution ([2]; Yoshixol 4 μl in 1 ml phage solution (about 10^7 per ml), 5 min-treated): 33% | numbers of plaques, of the plaques formation in the non-treated phage solution ([2]; Yoshixol 4 μl in 1 ml phage solution, 10 min-treated): 15% | numbers of plaques, of the plaques formation in the non-treated phage solution ([2]; Yoshixol 4 μl in 1 ml phage solution, 15 min-treated): 6% | plaques formation ([2]; Yoshixol 4 μl in 1 ml phage solution, treated over 20 min): plaques formation did not find | primary structure of antiserums for ABO blood types (electrophoretic analysis) ([3]; after treatment of Yoshixol): any change in primary structure of antiserums did not find | blood aggregation in judgment of ABO blood type ([3]; antiserum treated with Yoshixol 4 μl, human blood A, B, O type 400 μl): any aggregation did not occur | distribution of molecular weights on electrophoretic analysis versus not treated [4]: identical | hemolysis due to swelling and rupturing each erythrocyte ([5]; 1 μl of Yoshixol in 1 ml blood sample): did not occur | thrombus after adding Yoshixol ([5]; 1 μl of Yoshixol in 1 ml blood sample with thrombus): completely individualized to each erythrocyte | desquamation and deciduation of transplanted skin ([6]; skin dipped 2 minutes in Yoshixol solution, 10 μl on wound for 3 days, 2 weeks after implantation): did not show a desquamation and deciduation | inflammation reaction of transplanted skin ([6]; skin dipped in Yoshixol solution, 10 μl on wound for 3 days): inhibited | transplanted wound ([6]; skin dipped in Yoshixol solution, after 1 month): cured to a level which could not find a boundary with a skin of recipient | physiological function of thrombin to fibrinogen [7]: did not occur | primary structure of thrombin (electrophoresis) [7]: did not show any electrophoretic changes
